These results are taken from patent US4357344A, “Polybutylbenzylphenols and benzyl-3,4-methylenedioxybenzenes in insect population control” (The United States of America as represented by the …, priority 1979, dated 1982).

The term LD50 denotes the dose expected to kill half of the subjects tested.

Data set [1] relates to Salmonella tester strains TA-100, TA-98, TA-1537. The experiment in a line: Ames' Salmonella/microsome mutagenicity procedure. Particulars: for mutagenic activity: TA-100, TA-98, TA-1537, without or with metabolic activation. As to the method: The mutagenic activity of D, A, B, M, N, and CC were tested by the standard Ames' Salmonella/microsome procedure, which is reported to show better than 90% correlation with development of mammalian cancers (Ames et al., Mutation Research, Vol. 31, p. 347, 1975; McCann et al., Proc. Nat. Acad. Sci., Vol. 72, p. 5135, 1975). Tester strains TA-100, TA-98, TA-1537 and the plate test method were used, employing concentrations of 10, 100, 1000, and 10,000 […]. The metabolic activation mixture (S-9 mix) used the 9000 times g supernatant of Arochlor-1254-induced rat liver homogenate at a level of 100 μl per ml of S-9 mix.

Data set [2] concerns flies (family Muscidae). The data set is described as follows: Oviposition inhibition tests (treated fly food; Examples 6-9). It counts as in vivo. As to the method:
The compound to be tested was administered in a standard fly food containing 6 parts of sugar, 6 parts of powdered non-fat dry milk, and 1 part of powdered egg yolk. Treated food was prepared by mixing an appropriate amount of a solution or suspension of CBCP in acetone with a batch of the food. The acetone was evaporated (4-6 hours) and the dry material was repulverized. Oviposition inhibition tests: Samples of treated food with a container of water were placed in cages containing 100 newly-emerged adult flies (family Muscidae). After the flies had been exposed to the treated diet for 6-7 days, 1/2 inch of moist standard fly larva-rearing medium (CSMA) in souffle cups was placed in the cages for oviposition. After 4-6 hours, the cup was removed and examined for eggs. […] The procedure outlined in Example 6 was followed using a Group II compound. The procedure outlined in Example 6 was followed using Group III compounds. The results are summarized below: The procedure outlined in Example 6 was followed substituting a Group IV compound for those of Group I. The table below provides a summary of results.

The next data set in a line: Oral toxicity in mice. Particulars: mouse, in vivo; oral, mice; read-out: Estimated LD50. As to the method:
(§1) Compounds D, A, and B were also assayed for oral toxicity in mice.

The subject of the next data set is mice. The experiment in a line: Oral toxicity in mice. Particulars: mouse, in vivo, po. The procedure:
as §1

Data set [3] deals with flies (family Muscidae). The data set is described as follows: Chemosterilancy tests (egg hatch and pupal development; Examples 6-9). It counts as in vivo. As to the method:
(§2) The compound to be tested was administered in a standard fly food containing 6 parts of sugar, 6 parts of powdered non-fat dry milk, and 1 part of powdered egg yolk. Treated food was prepared by mixing an appropriate amount of a solution or suspension of CBCP in acetone with a batch of the food. The acetone was evaporated (4-6 hours) and the dry material was repulverized.
Chemosterilancy tests: If eggs were laid in the above tests, the cups were filled with water and stirred to break up the egg masses. A random sample of 100 eggs from each cup was collected and placed on a small piece of black cloth which was then laid on top of moist larva-rearing medium in a rearing container. Observations were made to determine percentage of egg hatch and pupal development.
The procedure outlined in Example 6 was followed using a Group II compound.
The procedure outlined in Example 6 was followed using Group III compounds. The results are summarized below:
The procedure outlined in Example 6 was followed substituting a Group IV compound for those of Group I. The table below provides a summary of results.

The test system of the next data set is screwworm flies. The data set is described as follows: Anti-procreant tests on screw-worm fly. It counts as in vivo. Particulars: 0.10% in food. The procedure: These tests were conducted on mass-reared screwworm flies which had been obtained as pupae from the screwworm fly plant at Mission, Texas. The flies were held in cages with water and undiluted corn syrup in a colony room maintained at about 27° C. and 60% relative humidity (RH) with a 12-hour photoperiod beginning at 6 a.m. Adults that emerged were lightly anesthetized with CO2 for ease of manipulation the same day.
The mixtures obtained were fed to the flies in "Dixie" paper cups, 7 cm diameter, and rice hulls were placed on the surface of the food to prevent the flies from getting stuck in the viscous mixture.
Initially, varying concentrations of a chemosterilant were fed to the flies for the first 5 days of life. Thereafter, the chemosterilant was replaced with pure corn syrup. On the 7th day, 3 replicates of 10 flies were stimulated to oviposit and the flies which oviposited were checked for insemination by an examination of the spermathecae for live sperms. The total number of eggs per fly was estimated and the hatchability of these eggs (fertility) was determined 24 hours later (at 37° C.). Observations were made to determine percentage of egg hatch.

Data set [4] relates to male flies (family Muscidae). The data set is described as follows: Sterilization of treated males crossed with virgin untreated females. It is filed as in vivo. The procedure:
as §2
These flies were maintained on untreated fly food. After 5 days, cups containing the larval-rearing medium was provided as previously described and a 100-egg sample was collected and place on moist larve-rearing medium. About a week after oviposition, examination was made to determine the percentage of hatched eggs and of pupae developed.

A short description of a further data set: Solubility in water. It counts as physicochemical.
Data set [5] relates to early fourth-stage larvae of the common malaria mosquito (Anopheles quadrimaculatus). The experiment in a line: Growth-inhibition tests on mosquito larvae. It counts as in vivo. Particulars: in water; corrected by Abbott's formula. The procedure: The compound to be tested was added to one liter of water until the final concentration thereof was a growth-inhibiting amount. Fifty early fourth-stage larvae of the common malaria mosquito (Anopheles quadrimaculatus) were placed on this water. Larval food was administered daily. Dead larvae and pupae were removed, counted, and discarded daily. Live pupae were removed, rinsed, and transferred to a cup of distilled water. The cup was placed in an emergence cage, and the emerging adults, if any, were maintained on a sugar-water diet.
The effectiveness of the compound in inhibiting growth was determined by adding the number of dead larvae and pupae and the number of adults that were dead, unable to complete eclosion, and malformed. This sum was corrected by Abbott's formula (to adjust for the number of larvae or pupae which would die naturally) and designated as the GI (growth inhibition). The results are expressed as GI-90, i.e., the concentration of growth inhibitor in ppm that would prevent and/or retard growth in 90% of the treated larvae.

`COc1ccc(C(C)c2cc(C(C)(C)C)cc(C(C)(C)C)c2O)cc1` (stereo not drawn) [B, 4,6-di-t-butyl-2-(α-methyl-4-methoxybenzyl)phenol]: in data set [1], the mutagenic activity entry was “non-mutagenic”. In addition, the “Mortality, parent generation” value in the data set with flies (family Muscidae) [2] (0.25% in food), in the data set on flies (family Muscidae) [2] (0.5% in food) and in the data set on flies (family Muscidae) [2] (1.0% in food) was 0% each time. Besides, the LD50 in the data set “Oral toxicity in mice” is 3550 mg/kg. In addition, the “oral toxicity (in words)” value in the data set with mice is reported as “only slightly toxic”. The figures for the Egg hatch in the data set on flies (family Muscidae) [3] (0.25% in food), in the data set with flies (family Muscidae) [3] (0.5% in food) and in the data set on flies (family Muscidae) [3] (1.0% in food) were 18%, 0% and 0%, respectively. Moreover, the Pupal development in the data set with flies (family Muscidae) [3] (0.25% in food) turned out to be 18%; with flies (family Muscidae) [3] (0.5% in food) it was 0%; in the data set with flies (family Muscidae) [3] (1.0% in food) it was 0%.

`COc1ccc(Cc2cc(C(C)(C)C)cc(C(C)(C)C)c2O)cc1` [C, 4,6-Di-t-butyl-2-(4-methoxybenzyl)phenol]: the “Mortality, parent generation” value with flies (family Muscidae) [2] (0.01% in food), in the data set with flies (family Muscidae) [2] (0.025% in food), with flies (family Muscidae) [2] (0.05% in food), in the data set with flies (family Muscidae) [2] (0.1% in food), in the data set with flies (family Muscidae) [2] (0.25% in food) and in the data set with flies (family Muscidae) [2] (0.5% in food) was 0% each time. The “Mortality, parent generation” value with flies (family Muscidae) [2] (1.0% in food) turned out to be 0%. The Oviposition result with flies (family Muscidae) [2] (0.25% in food) was “Normal”; with flies (family Muscidae) [2] (0.5% in food) it was “None”; in the data set on flies (family Muscidae) [2] (1.0% in food), “None”; in the data set with screwworm flies, 75.0%. This molecule also returned an Inhibition of embryogenesis in the data set with screwworm flies of 100%. The “Survival, Female” value in the data set on screwworm flies was 66.0%. For the same molecule, the “Survival, Male” value in the data set on screwworm flies is recorded as 63.0%. The same molecule came in with a sterilization of males in data set [4] (0.25% in food) of 100%. Also, the Egg hatch with flies (family Muscidae) [3] (0.01% in food) was found to be 45%; with flies (family Muscidae) [3] (0.025% in food) it was 0%; in the data set on flies (family Muscidae) [3] (0.05% in food), 0%; with flies (family Muscidae) [3] (0.1% in food), 0%; with flies (family Muscidae) [3] (0.25% in food), 0%. The Pupal development amounted to 45% with flies (family Muscidae) [3] (0.01% in food); 0% in the data set with flies (family Muscidae) [3] (0.025% in food); 0% in the data set on flies (family Muscidae) [3] (0.05% in food); 0% in the data set on flies (family Muscidae) [3] (0.1% in food); 0% in the data set on flies (family Muscidae) [3] (0.25% in food). The solubility in water result in “Solubility in water” is on record as “low solubility in water”.

As to `C=CCc1cc2c(cc1Cc1ccc(OC)cc1)OCO2` [CC, (4-Methoxybenzyl)-3,4-methylenedioxy-6-(2-propenyl)benzene], the mutagenic activity entry in data set [1] is recorded as “non-mutagenic”. Besides, the “Mortality, parent generation” value in the data set with flies (family Muscidae) [2] (0.01% in food) is listed as 0%; in the data set with flies (family Muscidae) [2] (0.025% in food) it was 0%; in the data set with flies (family Muscidae) [2] (0.05% in food), 0%; in the data set on flies (family Muscidae) [2] (0.1% in food), 0%; in the data set with flies (family Muscidae) [2] (0.25% in food), 50%. This molecule also came in with an Inhibition of embryogenesis with screwworm flies of 100%. This molecule yielded an Oviposition in the data set on screwworm flies of 65.0%. Moreover, the “Survival, Female” value with screwworm flies stood at 92.7%. Also, in the data set on screwworm flies, the “Survival, Male” value amounted to 45.0%. In addition, the “GI-90 (concentration of growth inhibitor that would prevent and/or retard growth in 90% of the treated larvae)” value in data set [5] was determined as 0.2 ppm. Besides, the values for the Egg hatch in the data set on flies (family Muscidae) [3] (0.01% in food) and in the data set on flies (family Muscidae) [3] (0.025% in food) were 15% and 0%, respectively. Also, the Pupal development was found to be 15% with flies (family Muscidae) [3] (0.01% in food) and 0% with flies (family Muscidae) [3] (0.025% in food). In addition, in the data set “Solubility in water”, the solubility in water entry was “low solubility in water”.

On to `CCCOc1cc2c(cc1C(C)c1ccc(OC)cc1)OCO2` (stereo not drawn) [I, (α-Methyl-4-methoxybenzyl)-3,4-methylenedioxy-6-n-propoxybenzene], for which the “Mortality, parent generation” value in the data set on flies (family Muscidae) [2] (0.01% in food), with flies (family Muscidae) [2] (0.025% in food) and in the data set on flies (family Muscidae) [2] (1.0% in food) was 0% in each case. In data set [4] (1.0% in food), the sterilization of males was 100%. Also, the “GI-90 (concentration of growth inhibitor that would prevent and/or retard growth in 90% of the treated larvae)” value in data set [5] is 0.042 ppm. Also, the values for the Egg hatch in the data set on flies (family Muscidae) [3] (0.01% in food) and in the data set with flies (family Muscidae) [3] (0.025% in food) were 63% and 38%, respectively. Further, the Pupal development in the data set with flies (family Muscidae) [3] (0.01% in food) turned out to be 63%; in the data set on flies (family Muscidae) [3] (0.025% in food), 38%.

In the case of `CCOc1cc2c(cc1Cc1ccc(OC)cc1)OCO2` [M, (4-Methoxybenzyl)-3,4-methylenedioxy-6-ethoxybenzene], the revertant frequencies entry in data set [1] (10-10,000 μg/plate in TA-100 and S-9) is given as “exceeded the mean control value plus two or three standard deviations”. Besides, the “mutagenic response relative to known mutagenic agents which revert this strain” value in data set [1] (TA-100 and S-9) is given as “extremely weak”. Further, the “Mortality, parent generation” value in the data set on flies (family Muscidae) [2] (0.01% in food), in the data set on flies (family Muscidae) [2] (0.025% in food), in the data set on flies (family Muscidae) [2] (0.05% in food) and in the data set on flies (family Muscidae) [2] (0.1% in food) was 0% throughout. In the data set with screwworm flies, this molecule gave an Inhibition of embryogenesis of 99.8%. The molecule also registered an Oviposition in the data set with screwworm flies of 55.0%. Moreover, the “Survival, Female” value in the data set on screwworm flies is listed as 88.7%. The “Survival, Male” value in the data set with screwworm flies is listed as 35.0%. The Egg hatch in the data set on flies (family Muscidae) [3] (0.01% in food) came out at 19%; with flies (family Muscidae) [3] (0.025% in food), 0%; in the data set with flies (family Muscidae) [3] (0.05% in food), 0%. The Pupal development with flies (family Muscidae) [3] (0.01% in food) is on record as 19%; with flies (family Muscidae) [3] (0.025% in food) it was 0%; with flies (family Muscidae) [3] (0.05% in food), 0%. In addition, the solubility in water result in the data set “Solubility in water” is listed as “low solubility in water”.

For the molecule `CCCOc1cc2c(cc1Cc1ccc(OC)cc1)OCO2` [N, (4-Methoxybenzyl)-3,4-methylenedioxy-6n-propoxybenzene], the mutagenic activity result in data set [1] was “non-mutagenic”. For the same molecule, the “Mortality, parent generation” value in the data set with flies (family Muscidae) [2] (0.05% in food) was 0%; with flies (family Muscidae) [2] (0.1% in food), 0%; with flies (family Muscidae) [2] (0.25% in food), 75%. Also, the Egg hatch turned out to be 33% in the data set on flies (family Muscidae) [3] (0.05% in food) and 0% in the data set on flies (family Muscidae) [3] (0.1% in food). Also, the Pupal development with flies (family Muscidae) [3] (0.05% in food) stood at 33%; with flies (family Muscidae) [3] (0.1% in food) it was 0%.
